Laboratory results published in patent US12551500B2, “C6′-substituted locked nucleic acid-modified cap analog and use thereof” (Hangzhou Tianlong Pharmaceutical Co., Ltd., priority 2024, dated 2026).

What was measured:
[1] = Characterization of lipid nanoparticles encapsulating Fluc-mRNA; assay type: physicochemical; details: for Particle size: LNP (YK-009/DSPC/cholesterol/DMG-PEG2000) encapsulating Fluc-mRNA transcribed using the cap analog; for PDI: LNP encapsulating Fluc-mRNA transcribed using the cap analog; for EE: encapsulation efficiency of LNP encapsulating Fluc-mRNA transcribed using the cap analog
Procedure: Cationic lipid YK-009 (Beijing Youcare Kechuang Pharmaceutical Technology Co., Ltd.), DSPC (AVT (Shanghai) Pharmaceutical Technology Co., Ltd.), cholesterol (AVT (Shanghai) Pharmaceutical Technology Co., Ltd.), and DMG-PEG2000 were dissolved in ethanol at a molar ratio of 49:10:39.5:1.5, and the mRNA was diluted in 50 mM citrate buffer (pH=4). The ethanol lipid solution was mixed with the Fluc-mRNA aqueous solution prepared from different cap structures at a volume ratio of 1:3 using a microfluidic device at a flow rate of 10 mL/min to prepare LNPs at a weight ratio of total lipid to mRNA of approximately 15:1. The resulting liposomes were diluted to 10-fold volume with PBS, and then ultrafiltered with a 300 KDa ultrafiltration tube to remove ethanol. The volume was then fixed to a certain volume with PBS. Finally, the LNPs were filtered through a 0.2 μm sterile filter to obtain an LNP preparation encapsulating Fluc-mRNA using YK-009/DSPC/cholesterol/DMG-PEG2000 (at a molar ratio of 49:10:39.5:1.5).
The particle size and polydispersity index (PDI) were determined by dynamic light scattering using a Malvern laser particle size analyzer. 10 μL of the liposome solution was taken, diluted to 1 mL with RNase-free deionized water, and added to a sample pool. Each sample was measured in triplicate. The measurement conditions were: a scattering angle of 90° and a temperature of 25° C. The encapsulation efficiency of LNPs was determined using the Quant-iT RiboGreen RNA Quantification Kit (Thermo Fisher Scientific, UK) according to the manufacturer's instructions.

HEK293T cells = experiment: Translation efficiency of capped luciferase mRNAs; assay type: cell-based; details: for relative fluorescence intensity, times that of HN3002: ratio to HN3002; for relative fluorescence intensity, times that of N-7413: ratio to N-7413; for relative fluorescence intensity, times that of YK-CAP-001: ratio to YK-CAP-001; for relative fluorescence intensity, times that of YK-CAP-002: ratio to YK-CAP-002; for relative fluorescence intensity, times that of m6A: ratio to m6A
Procedure: (1) HEK293T cells were cultured in DMEM medium containing 10% FBS and penicillin/streptomycin at 37° C. with 5% CO2.
(2) Cells in the culture dish were digested and counted, then spread in a 96-well plate at 10,000 cells per well, and cultured overnight until the cells adhered to the wall.
(3) When the cell density reached approximately 80%, transfection was performed by adding 0.5 μg of mRNA sample and Lipofectamine MessengerMAX Transfection Reagent (Invitrogen) per well according to the manufacturer's instructions.
(4) After the transfected cells were cultured at 37° C. with 5% CO2 for 24 hours, the growth medium was removed from the cells to be tested, and the cells were rinsed with PBS. After centrifugation to remove PBS, 50 μL of 1× lysis buffer was added. The cells and all liquid were transferred to a microcentrifuge tube and centrifuged.
(5) 20 μL of sample was taken and added to 100 μL of Dual-Lumi™ II Luciferase Assay Reagent pre-equilibrated to room temperature, and mixed appropriately.
(6) The mixture was incubated at room temperature (approximately 25° C.) for 5 minutes to stabilize the luminescence signal. Chemiluminescence was detected using a multifunctional microplate reader with a function for detecting chemiluminescence, and the data were recorded.

T7 RNA polymerase = T7 RNA polymerase (Escherichia phage T7, UniProt P00573); experiment: In vitro transcription yield of mRNA with cap analog (co-transcriptional capping); assay type: biochemical; details: for Yield per unit template: in vitro transcription, 1 μg DNA template, 20 μL system, 37° C. 2 hours; for transcription yield higher than that of compound 14: relative to compound 14
Procedure: (1) Capping synthesis using cap analogs
The plasmid was first linearized with plasmid linearizing enzyme, and then the linearized plasmid was purified.
(2) In vitro transcription and synthesis of mRNA
YK-CAP-001 to 006 and compound 14 in Table 1 were respectively used as cap analogs.
During the experiment, the volume of materials required for the system was first calculated, and then sample addition was conducted. The system was first added with sterile enzyme-free water, followed by the sequential addition of 10× buffer, NTPs, and cap analogs, mixed well, and gently centrifuged. Nuclease inhibitors, inorganic pyrophosphatase, T7 RNA polymerase, and linearized DNA templates were then added thereto. The system was mixed well, gently centrifuged, and incubated at 37° C. After 2 hours of incubation, the system was added with 1 U of DNase I and incubated at 37° C. for another 30 minutes. The mRNA precipitate was then washed with 75% ethanol, and after the ethanol was briefly evaporated to dryness, the mRNA was redissolved in sterile enzyme-free water.
(3) The transcription product was purified, and the in vitro transcription yield of mRNA was recorded.

DCP2 enzyme = biological target: T1, DCP2 enzyme (Schizosaccharomyces pombe, UniProt O13828); experiment: Decapping enzyme stability test; assay type: biochemical; details: for Decapping rate (%) of DCP2 enzyme: 30 pmol RNA, 50 U mRNA decapping enzyme, 37° C., 45 minutes; for decapping rate lower than that of HN3002: difference to HN3002; for decapping rate lower than that of N-7413: difference to N-7413; for decapping rate lower than that of YK-CAP-001: difference to YK-CAP-001; for decapping rate lower than that of YK-CAP-002: difference to YK-CAP-002; for decapping rate lower than that of compound 14: difference to compound 14; for decapping rate lower than that of m6A: difference to m6A
T1 construct: purchased New England Biolabs
T1 sequence (O13828 1-243 limits assumed): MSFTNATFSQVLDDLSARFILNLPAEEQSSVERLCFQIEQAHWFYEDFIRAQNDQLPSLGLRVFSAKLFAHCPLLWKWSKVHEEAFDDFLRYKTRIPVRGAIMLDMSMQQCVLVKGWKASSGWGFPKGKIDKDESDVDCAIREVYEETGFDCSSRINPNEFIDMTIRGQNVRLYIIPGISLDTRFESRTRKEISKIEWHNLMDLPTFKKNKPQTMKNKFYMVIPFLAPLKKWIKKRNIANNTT
T1 sequence (Q9P805 1-127 partner): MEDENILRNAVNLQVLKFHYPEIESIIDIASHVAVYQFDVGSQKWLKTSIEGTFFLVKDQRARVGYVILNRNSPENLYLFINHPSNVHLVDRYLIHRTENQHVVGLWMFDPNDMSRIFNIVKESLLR
T1 sequence (Q10108 155-180 partner limits assumed): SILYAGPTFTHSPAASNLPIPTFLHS
Procedure: 30 pmol of RNAs purified by polyacrylamide gel electrophoresis (PAGE) was subjected to an enzymatic reaction with 50 U of mRNA decapping enzyme (New England Biolabs) and 1×MDE buffer at 37° C. for 45 minutes. The enzymatic reactants were subjected to PAGE and stained with SYBR Green II (Lonza), followed by observation of the post-electrophoresis gel image on a Typhoon FLA 7000 (GE Healthcare) instrument. The electrophoresis band intensity ratio of RNA capping to RNA decapping was counted using ImageQuant (GE Healthcare) software, and the decapping rate of the decapping enzyme was calculated (as shown in Table 6).

T7 RNA polymerase, sequence (P00573 whole entry): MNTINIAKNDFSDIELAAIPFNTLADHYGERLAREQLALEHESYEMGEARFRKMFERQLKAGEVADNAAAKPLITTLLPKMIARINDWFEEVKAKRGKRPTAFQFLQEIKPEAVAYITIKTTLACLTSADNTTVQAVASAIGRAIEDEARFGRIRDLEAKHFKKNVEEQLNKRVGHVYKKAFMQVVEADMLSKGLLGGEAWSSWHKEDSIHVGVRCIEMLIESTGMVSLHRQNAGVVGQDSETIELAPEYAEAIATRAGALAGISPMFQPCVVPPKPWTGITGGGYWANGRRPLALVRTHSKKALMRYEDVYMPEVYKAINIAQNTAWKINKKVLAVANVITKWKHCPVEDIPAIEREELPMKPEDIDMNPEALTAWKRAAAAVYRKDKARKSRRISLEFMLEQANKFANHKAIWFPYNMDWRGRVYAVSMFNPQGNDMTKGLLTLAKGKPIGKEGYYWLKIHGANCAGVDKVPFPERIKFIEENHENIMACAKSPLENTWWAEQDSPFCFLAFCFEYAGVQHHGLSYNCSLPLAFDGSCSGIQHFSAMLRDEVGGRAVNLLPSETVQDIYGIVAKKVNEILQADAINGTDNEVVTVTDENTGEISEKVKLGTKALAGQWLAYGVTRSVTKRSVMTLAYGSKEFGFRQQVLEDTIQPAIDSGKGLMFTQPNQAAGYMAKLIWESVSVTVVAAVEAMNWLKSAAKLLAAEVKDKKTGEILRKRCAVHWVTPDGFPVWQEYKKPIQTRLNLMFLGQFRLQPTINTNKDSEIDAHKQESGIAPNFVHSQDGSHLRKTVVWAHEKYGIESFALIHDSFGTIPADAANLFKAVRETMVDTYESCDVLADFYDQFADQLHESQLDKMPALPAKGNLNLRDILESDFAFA

SMILES | Particle size [1] | PDI [1] | EE [1] | relative fluorescence intensity, times that of HN3002 (HEK293T cells) | relative fluorescence intensity, times that of N-7413 (HEK293T cells) | relative fluorescence intensity, times that of YK-CAP-001 (HEK293T cells) | relative fluorescence intensity, times that of YK-CAP-002 (HEK293T cells) | relative fluorescence intensity, times that of m6A (HEK293T cells) | Yield per unit template (T7 RNA polymerase) | transcription yield higher than that of compound 14 (T7 RNA polymerase) | Decapping rate (%) of DCP2 enzyme (DCP2 enzyme) | decapping rate lower than that of HN3002 (DCP2 enzyme) | decapping rate lower than that of N-7413 (DCP2 enzyme) | decapping rate lower than that of YK-CAP-001 (DCP2 enzyme) | decapping rate lower than that of YK-CAP-002 (DCP2 enzyme) | decapping rate lower than that of compound 14 (DCP2 enzyme) | decapping rate lower than that of m6A (DCP2 enzyme) | transcription yield higher than that of YK-CAP-001 (T7 RNA polymerase; relative to YK-CAP-001) | transcription yield higher than that of YK-CAP-002 (T7 RNA polymerase; relative to YK-CAP-002)
COC1C(OP(=O)([O-])OC[C@H]2O[C@@H](n3cnc4c(=O)[nH]c(N)nc43)C(O)C2O)[C@@H](COP(=O)(O)OP(=O)(O)OP(=O)(O)OC[C@]23O[C@@H]([n+]4cn(C)c5c(=O)[nH]c(N)nc54)C(O[C@H]2CCS(C)(=O)=O)C3O)O[C@H]1n1cnc2c(N)ncnc21 (stereo partly shown) [YK-CAP-005] | 87.01 nm | 0.064 | 94.5% | 1.1 times | 1.3 times | 1.6 times | 1.9 times | 3.7 times | 152.6 µg | 26.2% | 12.8% | 10.4% | 35.8% | 13.5% | 11.8% | 16.0% | 14.7% | – | –
COC1C(OP(=O)([O-])OC[C@H]2O[C@@H](n3cnc4c(=O)[nH]c(N)nc43)C(O)C2O)[C@@H](COP(=O)(O)OP(=O)(O)OP(=O)(O)OC[C@]23O[C@@H]([n+]4cn(C)c5c(=O)[nH]c(N)nc54)C(O[C@H]2CC(F)F)C3O)O[C@H]1n1cnc2c(N)ncnc21 (stereo partly shown) [YK-CAP-004] | 89.39 nm | 0.065 | 93.7% | 1.2 times | 1.4 times | 1.8 times | 2.0 times | 4.0 times | 163.2 µg | 35.0% | 10.3% | 12.9% | 38.3% | 16.0% | 14.3% | 18.5% | 17.2% | 82.8% | 58.3%
COC1C(OP(=O)([O-])OC[C@H]2O[C@@H](n3cnc4c(=O)[nH]c(N)nc43)C(O)C2O)[C@@H](COP(=O)(O)OP(=O)(O)OP(=O)(O)OC[C@]23O[C@@H]([n+]4cn(C)c5c(=O)[nH]c(N)nc54)C(O[C@H]2CC(=O)N(C)C)C3O)O[C@H]1n1cnc2c(N)ncnc21 (stereo partly shown) [YK-CAP-003] | 82.83 nm | 0.032 | 95.6% | 1.1 times | 1.2 times | 1.6 times | 1.8 times | 3.5 times | 151.0 µg | 24.9% | 11.8% | 11.4% | 36.8% | 14.5% | 12.8% | 17.0% | 15.7% | – | –
COC1C(OP(=O)([O-])OC[C@H]2O[C@@H](n3cnc4c(=O)[nH]c(N)nc43)C(O)C2O)[C@@H](COP(=O)(O)OP(=O)(O)OP(=O)(O)OC[C@]23O[C@@H]([n+]4cn(C)c5c(=O)[nH]c(N)nc54)C(O[C@H]2CCS(=O)(=O)N(C)C)C3O)O[C@H]1n1cnc2c(N)ncnc21 (stereo partly shown) [YK-CAP-006] | 96.64 nm | 0.029 | 96.3% | 1.2 times | 1.3 times | 1.7 times | 1.9 times | 3.7 times | 153.1 µg | 26.6% | 11.2% | 12.0% | 37.4% | 15.1% | 13.4% | 17.6% | 16.3% | – | –
